In patent US7332476B2, “Pyridyl substituted ketolide antibiotics” (Novartis AG, priority 2003, dated 2008):
Converted amounts (≈) assume the structure as drawn.

How the values were obtained:
Test in all cases: MIC, broth microdilution (NCCLS)
[1] = system: Streptococcus pneumoniae Stpn_297-749; format: cell-based; conditions: Table 7, Strain ID G (Table 6): S. pneumoniae Stpn_297-749
Outline: (§1)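 NCCLS broth microdilution with 2-fold serial drug dilutions (methanol stocks diluted in water); inoculum 3×10^5–7×10^5 CFU/ml in CAMHB, with 2-5% lysed horse blood for S. pneumoniae. Incubation 18-24 h at 35° C., ambient air, except S. pneumoniae (5-10% CO2). MIC is lowest concentration preventing visible growth.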

[2] = system: Streptococcus pneumoniae Stpn_Erm S 4297; format: cell-based; conditions: Table 7, Strain ID J (Table 6): S. pneumoniae Stpn_Erm S 4297
Description: (§2) Strains. The bacterial isolates listed in Table 4 were cultivated from −70° C. frozen stocks by two consecutive overnight passages (P1, P2) at 35° C. on 5% blood agar (Remel, Lenexa, Kans.). Chocolate agar (Remel) is used for Haemophilus influenzae. H. influenzae and Streptococcus pneumoniae are incubated in 5-10% CO2
(§3) Drug Stock Preparation. To determine the amount of solvent to be used to give the desired final concentration, the formula “weight obtained in mg/final concentration in mg/ml” will be used. It will give the amount of solvent in ml needed to be added to give the desired concentration. For example, if 2.5 mg/ml is the desired concentration and the weight of compound is 13.7 mg, then the amount of solvent to be added is […]. Methanol is used as the solvent to dissolve the test compounds. Further dilution of stock is done in sterile, deionized water. Drug stocks are kept frozen at −70° C., protected from light.
(§4) Susceptibility Testing. MICs are determined by the broth microdilution method in accordance with the NCCLS guidelines. In brief, organism suspensions are adjusted to a 0.5 McFarland standard to yield a final inoculum between 3×10^5 and 7×10^5 CFU/ml. Drug dilutions and inocula are made in sterile, cation adjusted Mueller-Hinton Broth (CAMHB) (Remel) for all but S. pneumoniae [CAMHB with 2-5% lysed horse blood (Remel)] and H. influenzae [Haemophilus Test Medium (Remel)]. An inoculum volume of 100 μl is added to wells containing 100 μl of broth with 2-fold serial dilutions of drug. All inoculated microdilution trays are incubated in ambient air at 35° C. for 18-24 hours, except for S. pneumoniae, and H. influenzae (both at 5-10% CO2).
(§5) Following appropriate incubation, the MIC is determined and the MIC is defined as the lowest concentration of the drug that prevented visible growth.
as §2, with “8” for “4”
(§6) Following appropriate incubation, the MIC is determined and the MIC is defined as the lowest concentration of the drug that prevented visible growth. […] Antibacterial activity of representative compounds of the invention were compared against telitromycin.

[3] = system: Staphylococcus epidermidis Step_14990; format: cell-based; conditions: Table 7, Strain ID B (Table 6): S. epidermidis Step_14990; in µg/mL (unit assumed)
Description: as §2, §3, §4, §5
as §2, with “8” for “4”
as §6

[4] = system: Streptococcus pneumoniae Stpn_Mef S 3427; format: cell-based; conditions: Table 7, Strain ID L (Table 6): S. pneumoniae Stpn_Mef S 3427
Description: as §2, §3, §4, §5
as §2, with “8” for “4”
as §6

[5] = system: Enterococcus faecalis Enfa_29212; format: cell-based; conditions: Table 7, Strain ID D (Table 6): E. faecalis Enfa_29212; in µg/mL (unit assumed)
Description: as §2, §3, §4, §5
as §2, with “8” for “4”
as §6

[6] = system: Staphylococcus epidermidis Step_f50654; format: cell-based; conditions: Table 7, Strain ID C (Table 6): S. epidermidis Step_f50654; in µg/mL (unit assumed)
Description: as §2, §3, §4, §5
as §2, with “8” for “4”
as §6

[7] = system: Staphylococcus aureus Stau_29213; format: cell-based; conditions: Table 7, Strain ID A (Table 6): S. aureus Stau_29213; in µg/mL (unit assumed)
Description: as §2, §3, §4, §5
as §2, with “8” for “4”
as §6

[8] = system: Haemophilus influenzae Hain_49247; format: cell-based; conditions: Table 7, Strain ID M (Table 6): H. influenzae Hain_49247; unit assumed
Description: as §2, §3, §4, §5
as §2, with “8” for “4”
as §6

[9] = system: Streptococcus pyogenes Stpy_8668; format: cell-based; conditions: Table 7, Strain ID E (Table 6): S. pyogenes Stpy_8668
Outline: as §1

[10] = system: Streptococcus pneumoniae Stpn_280-962; format: cell-based; conditions: Table 7, Strain ID H (Table 6): S. pneumoniae Stpn_280-962
Outline: as §1

[11] = system: Streptococcus pneumoniae Stpn_Mef 5654; format: cell-based; conditions: Table 7, Strain ID K (Table 6): S. pneumoniae Stpn_Mef 5654; in µg/mL (unit assumed)
Description: as §2, §3, §4, §5
as §2, with “8” for “4”
as §6

[12] = system: Streptococcus pneumoniae Stpn_49619; format: cell-based; conditions: Table 7, Strain ID F (Table 6): S. pneumoniae Stpn_49619
Outline: as §1

[13] = system: S. pneumoniae Stpn_Erm 6849; format: cell-based, Streptococcus pneumoniae; conditions: Table 7, Strain ID I (Table 6): S. pneumoniae Stpn_Erm 6849; unit assumed
Description: as §2, §3, §4, §5

| SMILES | MIC [1] | MIC ([2]; unit assumed) | MIC [3] | MIC ([4]; in µg/mL (unit assumed)) | MIC [5] | MIC [6] | MIC [7] | MIC [8] | MIC ([9]; unit assumed) | MIC [10] | MIC [11] | MIC [12] | MIC [13] | MIC [4] | MIC [9] | MIC ([10]; unit assumed) | MIC ([12]; unit assumed) | MIC ([1]; unit assumed) | MIC [2] |
| --- | --- | --- | --- | --- | --- | --- | --- | --- | --- | --- | --- | --- | --- | --- | --- | --- | --- | --- | --- |
| CCC1OC(=O)C(C)C(=O)C(C)C(OC2OC(C)CC(N(C)C)C2O)C(C)(OC)CC(C)C(=O)C(C)C2C1OC(=O)N2CCCCc1ncc(-c2ccccc2)s1 (stereo not drawn) [Compound 20t] | =0.05 | 1.56 µg/mL (≈ 1.92 µM) | 0.78 | 0.1 | 0.4 | 0.4 | 0.78 | 12.5 µg/mL (≈ 15.4 µM) | 0.2 µg/mL (≈ 0.246 µM) | =0.05 | 1.56 | =0.05 | 25 µg/mL (≈ 30.7 µM) |  |  |  |  |  |  |
| CCC1OC(=O)C(C)C(=O)C(C)C(OC2OC(C)CC(N(C)C)C2O)C(C)(OC)CC(C)C(=O)C(C)C2C1OC(=O)N2CCCCc1ncc(-c2cccc(N)c2)s1 (stereo not drawn) [Compound 20v] | =0.05 | 0.4 µg/mL (≈ 0.482 µM) | 0.4 |  | 0.2 | 0.2 | 0.4 | 6.25 µg/mL (≈ 7.54 µM) |  | =0.05 | 0.78 | =0.05 | 50 µg/mL (≈ 60.3 µM) | =0.05 | =0.05 |  |  |  |  |
| CCC1OC(=O)C(C)C(=O)C(C)C(OC2OC(C)CC(N(C)C)C2O)C(C)(OC)CC(C)C(=O)C(C)C2C1OC(=O)N2CCCCc1cc(C(F)(F)F)nc2ccccc12 (stereo not drawn) [Compound 20p] | =0.05 | 0.78 µg/mL (≈ 0.918 µM) | 0.2 | 0.2 | 0.2 | 0.4 | 0.4 | 6.25 µg/mL (≈ 7.35 µM) | 0.1 µg/mL (≈ 0.118 µM) |  | 0.78 |  | 6.25 µg/mL (≈ 7.35 µM) |  |  | 0.1 µg/mL (≈ 0.118 µM) | 0.1 µg/mL (≈ 0.118 µM) |  |  |
| CCC1OC(=O)C(C)C(=O)C(C)C(OC2OC(C)CC(N(C)C)C2O)C(C)(OC)CC(C)C(=O)C(C)C2C1OC(=O)N2CCCCc1ccnc2c(C(F)(F)F)cccc12 (stereo not drawn) [Compound 20q] | =0.05 | 0.2 µg/mL (≈ 0.235 µM) | 0.2 | 0.1 | 0.1 | 0.4 | 0.4 | 12.5 µg/mL (≈ 14.7 µM) |  | =0.05 | 0.4 | =0.05 | 1.56 µg/mL (≈ 1.84 µM) |  | =0.05 |  |  |  |  |
| CCC1OC(=O)C(C)C(=O)C(C)C(OC2OC(C)CC(N(C)C)C2O)C(C)(OC)CC(C)C(=O)C(C)C2C1OC(=O)N2CCCCc1ncc(-c2ccc(F)cc2F)s1 (stereo not drawn) [Compound 20u] |  | 12.5 µg/mL (≈ 14.7 µM) | 0.78 | 0.2 | 0.4 | 0.4 | 0.78 | 25 µg/mL (≈ 29.4 µM) | 0.4 µg/mL (≈ 0.471 µM) |  | 1.56 |  | 25 µg/mL (≈ 29.4 µM) |  |  | 0.1 µg/mL (≈ 0.118 µM) | 0.1 µg/mL (≈ 0.118 µM) | 0.1 µg/mL (≈ 0.118 µM) |  |
| CCC1OC(=O)C(C)C(=O)C(C)C(OC2OC(C)CC(N(C)C)C2O)C(C)(OC)CC(C)C(=O)C(C)C2C1OC(=O)N2CCCCc1cc(C)nc2ccccc12 (stereo not drawn) [Compound 20o] | =0.05 | 0.1 µg/mL (≈ 0.126 µM) | 0.2 | 0.1 | 0.1 | 0.2 | 0.2 | 3.13 µg/mL (≈ 3.93 µM) |  | =0.05 | 0.2 | =0.05 | 1.56 µg/mL (≈ 1.96 µM) |  | =0.05 |  |  |  |  |
| C/C=C/[C@]12OC(=O)N(CCCCn3cnc(-c4cccnc4)c3)[C@@H]1[C@@H](C)C(=O)[C@H](C)C[C@](C)(OC)[C@H](OC1O[C@H](C)C[C@H](N(C)C)[C@H]1O)[C@@H](C)C(=O)[C@@H](C)C(=O)O[C@@H]2CC (stereo partly drawn) [65 (2), (3aS,4R,7R,9R,10R,11S,13R,15R,15aR)-4-ETHYL-11-METHOXY-7,9,11,13,15-PENTAMETHYL-2,6,8,14-TETRAOXO-3a-[(1E)-PROP-1-ENYL]-1-[4-(4-PYRIDIN-3-YL-1H-IMIDAZOL-1-YL)BUTYL]TETRADECAHYDRO-1H-OXACYCLOTETRADECINO[4,3-D][1,3]OXAZOL-10-YL 3,4,6-TRIDEOXY-3-(DIMETHYLAMINO)-D-XYLO-HEXOPYRANOSIDE] | =0.05 | 0.4 µg/mL (≈ 0.477 µM) | 3.13 | 0.2 | 0.78 | 3.13 | 3.13 | 25 µg/mL (≈ 29.8 µM) | 0.2 µg/mL (≈ 0.239 µM) | =0.05 | 0.78 | =0.05 | 0.78 µg/mL (≈ 0.931 µM) |  |  |  |  |  |  |
| CCC1OC(=O)C(C)C(=O)C(C)C(OC2OC(C)CC(N(C)C)C2O)C(C)(OC)CC(C)C(=O)C(C)C2C1OC(=O)N2OCCOc1ccccc1 (stereo not drawn) [Compound 20w] | =0.05 | 3.13 µg/mL (≈ 4.26 µM) | 1.56 | 0.1 | 0.2 | 3.13 | 3.13 | 50 µg/mL (≈ 68 µM) |  | =0.05 | 0.4 | =0.05 | 12.5 µg/mL (≈ 17 µM) |  | =0.05 |  |  |  |  |
| CC[C@H]1OC(=O)[C@@](C)(F)C(=O)[C@H](C)[C@@H](OC2O[C@H](C)C[C@H](N(C)C)[C@H]2O)[C@@](C)(OC)C[C@@H](C)C(=O)[C@H](C)[C@H]2N(CCCC(C)(C)n3cnc4ncccc43)C(=O)O[C@]12CC (stereo partly drawn) [Example 39, (3aS,4R,7S,9R,10R,11S,13R,15R,15aR)-3a,4-diethyl-7-fluoro-1-[4-(1H-imidazo[4,5-b]pyridin-1-yl)-4-methylpentyl]-11-methoxy-7,9,11,13,15-pentamethyl-2,6,8,14-tetraoxotetradecahydro-2H-oxacyclotetradecino[4,3-d][1,3]oxazol-10-yl-3,4,6-trideoxy-3-(dimethylamino)-D-xylo-hexopyranoside] | =0.05 |  | 0.1 | 0.2 | 0.1 | 0.4 | 0.2 | 3.13 µg/mL (≈ 3.7 µM) |  | =0.05 | 0.78 | =0.05 | 0.1 µg/mL (≈ 0.118 µM) |  | =0.05 |  |  |  | =0.05 |
